Here are results for 26 compounds from patent US20260028328A1, “HETEROARYL DERIVATIVES AS DDRs INHIBITORS” (CHIESI FARMACEUTICI S.P.A., priority 2022, published 2026).

In one test the target is DDR2 (Homo sapiens (Human), UniProt Q16832). Put plainly: DDR2 binding assay (LanthaScreen Europium Kinase Binding assay). The note with it: 5 nM DDR2, 10 nM Kinase Tracer 178, 1 h at rt; Ki from IC50 by Cheng-Prusoff; read-out: Ki DDR2. As to the method:
(§1) DDR1 and DDR2 binding assays were performed using Life Technologies LanthaScreen™ Europium Kinase Binding assay. The compounds were incubated with 5 nM DDR1 (Carna Biosciences) or 5 nM DDR2 (Life Technologies) for 1 h at rt in white 384-well OptiPlate (PerkinElmer), containing 20 nM or 10 nM Kinase Tracer 178 respectively and 2 nM Europium labelled anti-GST antibody (Life Technologies) in assay buffer (50 mM HEPES pH 7.5, 10 mM MgCI2, 1 mM EGTA and 0.01% BRIJ35). The ratio of fluorescence emission 665 nm/615 nm after excitation at 340 nm was obtained using the Tecan Spark 20M plate reader. IC50 values were determined in GraphPad Prism 7.0 software, using 4 parameter model: log(inhibitor) vs. response. IC50 values were converted in Ki using the Cheng-Prusoff equation (Ki=IC50/(1+[Tracer]/Kd).
(In general: In TR-FRET formats the signal depends on donor and acceptor labels being close together.)

For another test, the target named is DDR1 (Homo sapiens (Human), UniProt Q08345). Put plainly: DDR1 binding assay (LanthaScreen Europium Kinase Binding assay). The note with it: 5 nM DDR1, 20 nM Kinase Tracer 178, 1 h at rt; Ki from IC50 by Cheng-Prusoff; read-out: Ki DDR1. As to the method: as §1
Sequence of DDR1 (Q08345 19-913): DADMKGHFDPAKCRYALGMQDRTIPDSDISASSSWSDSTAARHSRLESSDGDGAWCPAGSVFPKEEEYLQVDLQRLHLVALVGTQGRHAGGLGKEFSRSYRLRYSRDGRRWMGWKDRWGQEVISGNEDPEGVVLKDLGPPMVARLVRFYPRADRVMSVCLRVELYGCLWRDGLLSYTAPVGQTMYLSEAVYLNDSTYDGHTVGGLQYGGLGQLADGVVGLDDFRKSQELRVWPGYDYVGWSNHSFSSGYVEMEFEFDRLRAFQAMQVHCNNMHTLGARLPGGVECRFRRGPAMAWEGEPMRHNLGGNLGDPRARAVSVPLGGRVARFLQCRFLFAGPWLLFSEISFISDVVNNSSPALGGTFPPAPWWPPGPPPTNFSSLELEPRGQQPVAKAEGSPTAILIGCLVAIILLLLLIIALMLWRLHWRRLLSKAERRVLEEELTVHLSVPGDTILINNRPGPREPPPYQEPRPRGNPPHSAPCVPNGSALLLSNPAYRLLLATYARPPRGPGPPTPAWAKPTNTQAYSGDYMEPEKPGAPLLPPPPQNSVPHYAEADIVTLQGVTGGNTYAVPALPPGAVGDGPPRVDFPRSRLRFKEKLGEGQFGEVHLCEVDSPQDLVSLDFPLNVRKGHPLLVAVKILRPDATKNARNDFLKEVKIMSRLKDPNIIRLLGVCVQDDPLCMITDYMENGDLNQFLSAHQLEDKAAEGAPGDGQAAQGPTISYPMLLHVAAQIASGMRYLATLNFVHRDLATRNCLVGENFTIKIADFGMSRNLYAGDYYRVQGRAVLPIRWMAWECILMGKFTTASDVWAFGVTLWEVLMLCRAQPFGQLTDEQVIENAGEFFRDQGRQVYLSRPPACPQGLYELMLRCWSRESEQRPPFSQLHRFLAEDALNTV

Sequence of DDR2 (Q16832 22-855): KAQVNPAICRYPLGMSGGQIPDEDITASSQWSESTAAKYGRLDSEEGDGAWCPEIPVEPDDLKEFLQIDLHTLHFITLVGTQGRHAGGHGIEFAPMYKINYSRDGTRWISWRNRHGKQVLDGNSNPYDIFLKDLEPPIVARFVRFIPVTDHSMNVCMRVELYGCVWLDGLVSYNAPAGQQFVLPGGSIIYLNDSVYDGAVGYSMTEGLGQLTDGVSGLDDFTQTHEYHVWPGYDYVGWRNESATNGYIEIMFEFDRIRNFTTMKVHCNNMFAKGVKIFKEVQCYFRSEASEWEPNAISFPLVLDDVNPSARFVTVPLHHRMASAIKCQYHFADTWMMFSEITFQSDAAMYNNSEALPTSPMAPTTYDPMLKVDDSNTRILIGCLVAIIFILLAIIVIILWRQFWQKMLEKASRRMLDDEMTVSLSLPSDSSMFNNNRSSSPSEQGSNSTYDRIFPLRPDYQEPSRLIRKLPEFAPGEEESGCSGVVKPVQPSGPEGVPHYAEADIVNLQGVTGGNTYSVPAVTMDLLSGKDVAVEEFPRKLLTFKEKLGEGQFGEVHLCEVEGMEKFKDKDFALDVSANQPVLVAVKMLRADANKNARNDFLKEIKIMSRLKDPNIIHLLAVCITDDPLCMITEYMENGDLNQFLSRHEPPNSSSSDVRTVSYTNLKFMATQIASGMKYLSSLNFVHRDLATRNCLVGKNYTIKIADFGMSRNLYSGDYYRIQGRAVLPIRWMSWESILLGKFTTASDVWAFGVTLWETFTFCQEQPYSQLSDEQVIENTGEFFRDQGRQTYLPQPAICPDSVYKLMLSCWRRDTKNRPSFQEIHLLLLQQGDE

Turning to `Cc1ccc(OC(F)(F)F)cc1NC(=O)c1ccc(C)c(OC2CN(c3cnn4ccncc34)C2)c1` [Example 159, 4-methyl-N-(2-methyl-5-(trifluoromethoxy)phenyl)-3-((1-(pyrazolo[1,5-a]pyrazin-3-yl)azetidin-3-yl)oxy)benzamide], the Ki on DDR2 was 5 to 25 nM; at DDR1, less than 5 nM.

Turning to `COc1ccc(C(=O)Nc2cncc(C(F)(F)F)c2)cc1NC1CN(c2cnn3ccncc23)C1` [Example 183, 4-methoxy-3-((1-(pyrazolo[1,5-a]pyrazin-3-yl)azetidin-3-yl)amino)-N-(5-(trifluoromethyl)pyridin-3-yl)benzamide], the Ki is 5 to 25 nM at DDR2 and less than 5 nM on DDR1.

For the compound `Cc1ccc(C(=O)Nc2cncc(C(F)(F)F)c2)cc1OC1CN(c2cnn3ccc(N4CCC(CO)CC4)nc23)C1` [Example 180, 3-((1-(5-(4-(hydroxymethyl)piperidin-1-yl)pyrazolo[1,5-a]pyrimidin-3-yl)azetidin-3-yl)oxy)-4-methyl-N-(5-(trifluoromethyl)pyridin-3-yl)benzamide], the inhibition constant (Ki) on DDR2 is greater than 100 nM; at DDR1 it was 5 to 25 nM.

In the case of `Cc1ccc(C(=O)Nc2cncc(C(F)(F)F)c2)cc1OC1CN(c2ncnc3[nH]cc(C#N)c23)C1` [Example 173, 3-((1-(5-cyano-7H-pyrrolo[2,3-d]pyrimidin-4-yl)azetidin-3-yl)oxy)-4-methyl-N-(5-(trifluoromethyl)pyridin-3-yl)benzamide], the Ki is 5 to 25 nM at DDR2 and less than 5 nM at DDR1.

Turning to `Cc1ccc(C(=O)Nc2cncc(C(F)(F)F)c2)cc1OC1CN(c2cncc3c2cnn3C)C1` [Example 169, 4-methyl-3-((1-(1-methyl-1H-pyrazolo[3,4-c]pyridin-4-yl)azetidin-3-yl)oxy)-N-(5-(trifluoromethyl)pyridin-3-yl)benzamide], the values for the Ki at DDR2 and at DDR1 were 5 to 25 nM and less than 5 nM, respectively.

As to `Cc1ccc(C(=O)Nc2cncc(C(F)(F)F)c2)cc1OC1CN(c2cnc3cnccn23)C1` [Example 146, 3-((1-(imidazo[1,2-a]pyrazin-3-yl)azetidin-3-yl)oxy)-4-methyl-N-(5-(trifluoromethyl)pyridin-3-yl)benzamide], the inhibition constant Ki on DDR2 and on DDR1 was less than 5 nM each time.

In the case of `COc1ccc(C(F)(F)F)cc1NC(=O)c1ccc(C)c(OC2CN(c3cnn4ccncc34)C2)c1` [Example 153, N-(2-methoxy-5-(trifluoromethyl)phenyl)-4-methyl-3-((1-(pyrazolo[1,5-a]pyrazin-3-yl)azetidin-3-yl)oxy)benzamide], the Ki at DDR2 was 5 to 25 nM; at DDR1 it was less than 5 nM.

Consider `Cc1ccc(C(=O)Nc2cncc(C(F)(F)F)c2)cc1OC1CN(c2cnc3ccccn23)C1` [Example 137, 3-((1-(imidazo[1,2-a]pyridin-3-yl)azetidin-3-yl)oxy)-4-methyl-N-(5-(trifluoromethyl)pyridin-3-yl)benzamide], for which the Ki on DDR2 and at DDR1 was less than 5 nM throughout.

Consider “4-methyl-3-((1-(pyrimidin-5-yl)azetidin-3-yl)thio)-N-(5-(trifluoromethyl)pyridin-3-yl)benzamide [Example 177]”, for which the inhibition constant (Ki) is 25 to 100 nM on DDR2 and 5 to 25 nM on DDR1.

`Cc1ccc(C(=O)Nc2cc(C(C)(C)C)nn2C)cc1OC1CN(c2cnn3ccncc23)C1` [Example 163, N-(3-(tert-butyl)-1-methyl-1H-pyrazol-5-yl)-4-methyl-3-((1-(pyrazolo[1,5-a]pyrazin-3-yl)azetidin-3-yl)oxy)benzamide]: the Ki on DDR2 and at DDR1 was 5 to 25 nM throughout.

In the case of `Cc1ccc(C(=O)Nc2cncc(C(F)(F)F)c2)cc1OC1CN(c2cnn3ccccc23)C1` [Example 168, 4-methyl-3-((1-(pyrazolo[1,5-a]pyridin-3-yl)azetidin-3-yl)oxy)-N-(5-(trifluoromethyl)pyridin-3-yl)benzamide], the Ki at DDR2 and at DDR1 was less than 5 nM each time.

Take `Cc1ccc(C(=O)Nc2cncc(C(F)(F)F)c2)cc1OC1CN(c2cncnc2)C1` [Example 135, 4-methyl-3-((1-(pyrimidin-5-yl)azetidin-3-yl)oxy)-N-(5-(trifluoromethyl)pyridin-3-yl)benzamide]: the Ki is 5 to 25 nM at DDR2 and less than 5 nM at DDR1.

For the compound `Cc1ccc(C(=O)Nc2cncc(C(F)(F)F)c2)cc1OC1CN(c2cncc(C(F)F)c2)C1` [Example 165, 3-((1-(5-(difluoromethyl)pyridin-3-yl)azetidin-3-yl)oxy)-4-methyl-N-(5-(trifluoromethyl)pyridin-3-yl)benzamide], the Ki was 5 to 25 nM on DDR2 and less than 5 nM on DDR1.

Consider `Cc1ccc(C(=O)Nc2cc(C(C)(C)C)no2)cc1NC1CN(c2cnn3ccncc23)C1` [Example 149, N-(3-(tert-butyl)isoxazol-5-yl)-4-methyl-3-((1-(pyrazolo[1,5-a]pyrazin-3-yl)azetidin-3-yl)amino)benzamide], for which the Ki on DDR2 and on DDR1 was 5 to 25 nM in each case.

For the compound `O=C(Nc1cncc(C(F)(F)F)c1)c1ccc(OC(F)F)c(OC2CN(c3cnn4ccncc34)C2)c1` [Example 182, 4-(difluoromethoxy)-3-((1-(pyrazolo[1,5-a]pyrazin-3-yl)azetidin-3-yl)oxy)-N-(5-(trifluoromethyl)pyridin-3-yl)benzamide], the Ki at DDR2 and on DDR1 was less than 5 nM throughout.

Take `Cc1ccc(C(=O)Nc2cncc(C(F)(F)F)c2)cc1SC1CN(c2cnn3ccncc23)C1` [Example 178, 4-methyl-3-((1-(pyrazolo[1,5-a]pyrazin-3-yl)azetidin-3-yl)thio)-N-(5-(trifluoromethyl)pyridin-3-yl)benzamide]: the Ki on DDR2 and at DDR1 was less than 5 nM throughout.

`Cc1ccc(C(=O)Nc2cncc(C(F)(F)F)c2)cc1N(C)C1CN(c2cnn3ccncc23)C1` [Example 151, 4-methyl-3-(methyl(1-(pyrazolo[1,5-a]pyrazin-3-yl)azetidin-3-yl)amino)-N-(5-(trifluoromethyl)pyridin-3-yl)benzamide]: the Ki is 5 to 25 nM at DDR2 and less than 5 nM at DDR1.

With `Cc1ccc(C(=O)Nc2cccc(OC(F)(F)F)c2)cc1OC1CN(c2cnn3ccncc23)C1` [Example 161, 4-methyl-3-((1-(pyrazolo[1,5-a]pyrazin-3-yl)azetidin-3-yl)oxy)-N-(3-(trifluoromethoxy)phenyl)benzamide], the Ki on DDR2 and at DDR1 was less than 5 nM each time.

Take `Cc1ccc(C(=O)Nc2cncc(C(F)(F)F)c2)cc1OC1CN(c2cnn3ccc(N4CCN(C)CC4)nc23)C1` [Example 166, 4-methyl-3-((1-(5-(4-methylpiperazin-1-yl)pyrazolo[1,5-a]pyrimidin-3-yl)azetidin-3-yl)oxy)-N-(5-(trifluoromethyl)pyridin-3-yl)benzamide]: the Ki at DDR2 is 5 to 25 nM; at DDR1, less than 5 nM.

`CC(=O)Nc1cncc(N2CC(Oc3cc(C(=O)Nc4cncc(C(F)(F)F)c4)ccc3C)C2)c1` [Example 145, 3-((1-(5-acetamidopyridin-3-yl)azetidin-3-yl)oxy)-4-methyl-N-(5-(trifluoromethyl)pyridin-3-yl)benzamide]: the Ki on DDR2 and on DDR1 was less than 5 nM in each case.

In the case of `CCc1cc(NC(=O)c2ccc(C)c(OC3CN(c4cnn5ccncc45)C3)c2)no1` [Example 152, N-(5-ethylisoxazol-3-yl)-4-methyl-3-((1-(pyrazolo[1,5-a]pyrazin-3-yl)azetidin-3-yl)oxy)benzamide], the values for the inhibitory constant (Ki) on DDR2 and at DDR1 were 25 to 100 nM and 5 to 25 nM, respectively.

With `Cc1ccc(C(=O)Nc2cncc(C(F)(F)F)c2)cc1OC1CN(c2cnn3cccnc23)C1` [Example 142, 4-methyl-3-((1-(pyrazolo[1,5-a]pyrimidin-3-yl)azetidin-3-yl)oxy)-N-(5-(trifluoromethyl)pyridin-3-yl)benzamide], the Ki at DDR2 was 5 to 25 nM; on DDR1 it was less than 5 nM.

As to `Cc1ccc(C(=O)Nc2cncc(C(F)(F)F)c2)cc1OC1CN(c2cnccc2C#N)C1` [Example 174, 3-((1-(4-cyanopyridin-3-yl)azetidin-3-yl)oxy)-4-methyl-N-(5-(trifluoromethyl)pyridin-3-yl)benzamide], the Ki at DDR2 and on DDR1 was less than 5 nM each time.

In the case of `COc1ccc(OC(F)(F)F)cc1NC(=O)c1ccc(C)c(OC2CN(c3cnn4ccncc34)C2)c1` [Example 158, N-(2-methoxy-5-(trifluoromethoxy)phenyl)-4-methyl-3-((1-(pyrazolo[1,5-a]pyrazin-3-yl)azetidin-3-yl)oxy)benzamide], the Ki on DDR2 was 5 to 25 nM; on DDR1, less than 5 nM.

Turning to `Cc1ccc(C(=O)Nc2cncc(C(F)(F)F)c2)cc1NC1CN(c2cncc(-c3cnn(C)c3)c2)C1` [Example 144, 4-methyl-3-((1-(5-(1-methyl-1H-pyrazol-4-yl)pyridin-3-yl)azetidin-3-yl)amino)-N-(5-(trifluoromethyl)pyridin-3-yl)benzamide], the Ki is 5 to 25 nM at DDR2 and less than 5 nM at DDR1.

As to `Cc1ccc(C(=O)Nc2cncc(C(F)(F)F)c2)cc1OC1CN(c2cncc(-c3cnn(C)c3)c2)C1` [Example 143, 4-methyl-3-((1-(5-(1-methyl-1H-pyrazol-4-yl)pyridin-3-yl)azetidin-3-yl)oxy)-N-(5-(trifluoromethyl)pyridin-3-yl)benzamide], the Ki on DDR2 and on DDR1 was less than 5 nM each time.

For orientation: Ki means a measure of affinity in units of concentration, obtained from inhibition or displacement.
